Experimental data from patent publication US10125134B2 (Mirati Therapeutics, Inc., priority 2016, dated 2018).
Read-outs that look alike come from different tables or passages of the source.

Tests used:
[1] = molecular target: KRas G12C (Homo sapiens, UniProt P01116, C118S/C51S/C80L/G12C); assay: KRas G12C Modification Assay (LCMS detection of covalent adduct); type: binding; conditions: normalized percent of control; tested at 5 μM concentration for 3 hours
Summary of the method: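 Cys-light KRas G12C mutant protein incubated with compound in K-Ras assay buffer, reactions quenched at set time points with 25 mM acetic acid and analysed by intact-protein LC/MS on a C-3 column. Deconvoluted mass heights expressed as percent of control (POC) relative to compound-free protein.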

[2] = system: NCI-H358 cells (express KRas G12C), Phospho-ERK; assay: Cellular inhibition of KRas G12C: Phospho-ERK in NCI-H358 cells; type: cell-based; conditions: pERK(Thr202/Tyr204) normalized with GAPDH, NCI-H358 cells, 3 hours, read-out: IC50
Summary of the method: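 IC50 derived by 4-parameter fit of GAPDH-normalized pERK(Thr202/Tyr204) signal, as percent of DMSO control. Signal came from in-cell immunodetection with infrared secondaries after 3 h compound exposure of KRas G12C NCI-H358 cells at 0.5% DMSO.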

POC [1] | Compound | IC50 ([2]; Homo sapiens) [nM] | IC50 ([2]; Homo sapiens, NCI-H358, 3 h) [nM] | IC50 [2] [nM]
C (“C”>50% POC) | C=CC(=O)N1CCN(c2nc(NC[C@@H]3CCCN3C)nc3c2CCN(c2cccc4ccccc24)C3)C[C@@H]1CC#N [Example 407, 2-((S)-1-acryloyl-4-(2-((((S)-1-methylpyrrolidin-2-yl)methyl)amino)-7-(naphthalen-1-yl)-5,6,7,8-tetrahydropyrido[3,4-d]pyrimidin-4-yl)piperazin-2-yl)acetonitrile] | – | > 1000 | –
C (“C”>50% POC) | C=CC(=O)N1CCN(c2nc(OC[C@@H]3CCCN3C)nc3c2CCN(c2cccc4ccccc24)C3)[C@H](C)C1 [Example 353, 1-[(3R)-3-methyl-4-[2-[[(2S)-1-methylpyrrolidin-2-yl]methoxy]-7-(1-naphthyl)-6,8-dihydro-5H-pyrido[3,4-d]pyrimidin-4-yl]piperazin-1-yl]prop-2-en-1-one] | – | > 1000 | –
C (“C”>50% POC) | C=CC(=O)N1CCN(c2nc(OC[C@@H]3CCCN3C)nc3c2CCN(c2cccc4cccc(CC)c24)C3)C[C@@H]1CC#N [Example 360, 2-[(2S)-4-[7-(8-ethyl-1-naphthyl)-2-[[(2S)-1-methylpyrrolidin-2-yl]methoxy]-6,8-dihydro-5H-pyrido[3,4-d]pyrimidin-4-yl]-1-prop-2-enoyl-piperazin-2-yl]acetonitrile] | – | 0.1 to 1000 | –
C (“C”>50% POC) | C=CC(=O)N1CCN(c2nc(OC[C@@H]3CCCN3CC)nc3c2CCN(c2ccc(F)c4ccccc24)C3)CC1CC#N (stereo partly drawn) [Example 322, 2-(1-acryloyl-4-(2-(((S)-1-ethylpyrrolidin-2-yl)methoxy)-7-(4-fluoronaphthalen-1-yl)-5,6,7,8-tetrahydropyrido[3,4-d]pyrimidin-4-yl)piperazin-2-yl)acetonitrile] | – | 0.1 to 1000 | –
C (“C”>50% POC) | C=CC(=O)N1CCN(c2nc(OC[C@@H]3CCCN3C)nc3c2CCN(c2cccc(F)c2Cl)C3)C[C@@H]1CC#N [Example 405, 2-((S)-1-acryloyl-4-(7-(2-chloro-3-fluorophenyl)-2-(((S)-1-methylpyrrolidin-2-yl)methoxy)-5,6,7,8-tetrahydropyrido[3,4-d]pyrimidin-4-yl)piperazin-2-yl)acetonitrile] | – | 0.1 to 1000 | –
C (“C”>50% POC) | C=CC(=O)N1CCN(c2nc(OC[C@@H]3C[C@@H](OC)CN3CC)nc3c2CCN(c2cccc(Cl)c2C(F)(F)F)C3)C[C@@H]1CC#N [Example 335, 2-[(2S)-4-[7-[3-chloro-2-(trifluoromethyl)phenyl]-2-[[(2S,4R)-1-ethyl-4-methoxy-pyrrolidin-2-yl]methoxy]-6,8-dihydro-5H-pyrido[3,4-d]pyrimidin-4-yl]-1-prop-2-enoyl-piperazin-2-yl]acetonitrile] | – | 0.1 to 1000 | –
C (“C”>50% POC) | C=CC(=O)N1CCN(c2nc(OC[C@@H]3CCCN3C)nc3c2CCN(c2cc(O)cc4ccccc24)C3)C[C@@H]1CC#N [Example 317, 2-((S)-1-acryloyl-4-(7-(3-hydroxynaphthalen-1-yl)-2-(((S)-1-methylpyrrolidin-2-yl)methoxy)-5,6,7,8-tetrahydropyrido[3,4-d]pyrimidin-4-yl)piperazin-2-yl)acetonitrile] | – | 0.1 to 1000 | –
C (“C”>50% POC) | C=CC(=O)N1CCN(c2nc(OC[C@H]3COCCN3C)nc3c2CCN(c2cccc4ccccc24)C3)CC1CC#N (stereo partly drawn) [Example 444, 2-(1-Acryloyl-4-(2-(((R)-4-methylmorpholin-3-yl)methoxy)-7-(naphthalen-1-yl)-5,6,7,8-tetrahydropyrido[3,4-d]pyrimidin-4-yl)piperazin-2-yl)acetonitrile] | – | – | > 1000

The remaining lines, values behind:

Compound | POC [1] | IC50 ([2]; Homo sapiens) [nM] | IC50 ([2]; Homo sapiens, NCI-H358, 3 h) [nM] | IC50 [2] [nM]
C=CC(=O)N1CCN(c2nc(OCCCN3CCOCC3)nc3c2CCN(c2cc(C(F)F)cc4ccccc24)C3)CC1 [Example 112, 1-(4-(7-(3-(difluoromethyl)naphthalen-1-yl)-2-(3-morpholinopropoxy)-5,6,7,8-tetrahydropyrido[3,4-d]pyrimidin-4-yl)piperazin-1-yl)prop-2-en-1-one] | A (“A”≤25% POC) | > 1000 | – | –
C=CC(=O)N1CCN(c2nc(OCCN(C)CCO)nc3c2CCN(c2cc(O)cc4ccccc24)C3)CC1 [Example 83, 1-(4-(2-(2-((2-hydroxyethyl)(methyl)amino)ethoxy)-7-(3-hydroxynaphthalen-1-yl)-5,6,7,8-tetrahydropyrido[3,4-d]pyrimidin-4-yl)piperazin-1-yl)prop-2-en-1-one] | C (“C”>50% POC) | – | > 1000 | –
C=CC(=O)N1CCN(c2nc(OCCCN(C)C)nc3c2CCN(c2cc(O)cc4ccccc24)C3)CC1 [Example 10, 1-(4-(2-(3-(dimethylamino)propoxy)-7-(3-hydroxynaphthalen-1-yl)-5,6,7,8-tetrahydropyrido[3,4-d]pyrimidin-4-yl)piperazin-1-yl)prop-2-en-1-one] | C (“C”>50% POC) | – | > 1000 | –
C=CC(=O)N1CCN(c2nc(OC[C@@H]3CCCN(C)C3)nc3c2CCN(c2cc(O)cc4ccccc24)C3)CC1 [Example 192, (R)-1-(4-(7-(3-hydroxynaphthalen-1-yl)-2-((1-methylpiperidin-3-yl)methoxy)-5,6,7,8-tetrahydropyrido[3,4-d]pyrimidin-4-yl)piperazin-1-yl)prop-2-en-1-one] | C (“C”>50% POC) | – | 0.1 to 1000 | –
C=CC(=O)N1CCN(c2nc(OC[C@]3(C)CCCN3C)nc3c2CCN(c2cccc4ccccc24)C3)CC1CC#N (stereo partly drawn) [Example 394, 2-(1-acryloyl-4-(2-(((S)-1,2-dimethylpyrrolidin-2-yl)methoxy)-7-(naphthalen-1-yl)-5,6,7,8-tetrahydropyrido[3,4-d]pyrimidin-4-yl)piperazin-2-yl)acetonitrile] | C (“C”>50% POC) | – | 0.1 to 1000 | –
C=CC(=O)N1CCN(c2nc(OC[C@@H]3C[C@@H](OC)CN3C)nc3c2CCN(c2cccc4ccccc24)C3)CC1CC#N (stereo partly drawn) [Example 268, 2-(1-acryloyl-4-(2-(((2S,4R)-4-methoxy-1-methylpyrrolidin-2-yl)methoxy)-7-(naphthalen-1-yl)-5,6,7,8-tetrahydropyrido[3,4-d]pyrimidin-4-yl)piperazin-2-yl)acetonitrile] | C (“C”>50% POC) | – | 0.1 to 1000 | –
C=CC(=O)N1CCN(c2nc(OCCCN3CCOCC3)nc3c2CCN(c2cc(O)cc4ccccc24)C3=O)CC1 [Example 121, 4-(4-acryloylpiperazin-1-yl)-7-(3-hydroxynaphthalen-1-yl)-2-(3-morpholinopropoxy)-6,7-dihydropyrido[3,4-d]pyrimidin-8(5H)-one] | C (“C”>50% POC) | > 1000 | – | –
C=CC(=O)N1CCN(c2nc(OCCCN3C[C@H]4C[C@@H]3CO4)nc3c2CCN(c2ccccc2C(F)(F)F)C3)CC1CC#N (stereo partly drawn) [Example 297, 2-[4-[2-[3-[(1R,4R)-2-oxa-5-azabicyclo[2.2.1]heptan-5-yl]propoxy]-7-[2-(trifluoromethyl)phenyl]-6,8-dihydro-5H-pyrido[3,4-d]pyrimidin-4-yl]-1-prop-2-enoyl-piperazin-2-yl]acetonitrile] | C (“C”>50% POC) | – | – | 0.1 to 1000
C=CC(=O)N1CCN(c2nc(OCC(O)CO)nc3c2CCN(c2cc(O)cc4ccccc24)C3)CC1 (centres unmarked) [Example 143, 1-[4-[2-(2,3-dihydroxypropoxy)-7-(3-hydroxy-1-naphthyl)-6,8-dihydro-5H-pyrido[3,4-d]pyrimidin-4-yl]piperazin-1-yl]prop-2-en-1-one] | C (“C”>50% POC) | – | > 1000 | –
C=CC(=O)N1CCN(c2nc(OCC3COCCN3C)nc3c2CCN(c2cc(O)cc4ccccc24)C3)CC1 (centres unmarked) [Example 194, 1-(4-(7-(3-hydroxynaphthalen-1-yl)-2-((4-methylmorpholin-3-yl)methoxy)-5,6,7,8-tetrahydropyrido[3,4-d]pyrimidin-4-yl)piperazin-1-yl)prop-2-en-1-one] | C (“C”>50% POC) | – | > 1000 | –
C=CC(=O)N1CCN(c2nc(OCCCN3CCC(OC)C3)nc3c2CCN(c2cc(O)cc4ccccc24)C3)CC1 (centres unmarked) [Example 137, 1-[4-[7-(3-hydroxy-1-naphthyl)-2-[3-(3-methoxypyrrolidin-1-yl)propoxy]-6,8-dihydro-5H-pyrido[3,4-d]pyrimidin-4-yl]piperazin-1-yl]prop-2-en-1-one] | C (“C”>50% POC) | – | > 1000 | –
C=CC(=O)N1CCN(c2nc(OC[C@@H]3CCCN3C)nc3c2CCN(c2cccc4cccc(C)c24)C3)CC1CC#N (stereo partly drawn) [Example 309, 2-(1-acryloyl-4-(7-(8-methylnaphthalen-1-yl)-2-(((S)-1-methylpyrrolidin-2-yl)methoxy)-5,6,7,8-tetrahydropyrido[3,4-d]pyrimidin-4-yl)piperazin-2-yl)acetonitrile] | C (“C”>50% POC) | – | 0.1 to 1000 | –
C=CC(=O)N1CCN(c2nc(OC[C@@H]3CCCC(=O)N3)nc3c2CCN(c2cc(O)cc4ccccc24)C3)CC1 (single isomer, unassigned) [Example 61] | C (“C”>50% POC) | – | > 1000 | –
C=CC(=O)N1CCN(c2nc(O[C@H](C)CN(C)C)nc3c2CCN(c2cc(O)c(Cl)c4ccccc24)C3)CC1 [Example 125, (R)-1-(4-(7-(4-chloro-3-hydroxynaphthalen-1-yl)-2-((1-(dimethylamino)propan-2-yl)oxy)-5,6,7,8-tetrahydropyrido[3,4-d]pyrimidin-4-yl)piperazin-1-yl)prop-2-en-1-one] | A (“A”≤25% POC) | > 1000 | – | –
